Laboratory results from PubChem BioAssay (NCI).
Values joined by “and” are separate entries in the source; they are usually repeats but may differ in a detail not shown here. Identical values can stand only once.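 Method: 48-hour compound exposure of cells in 96-well plates, five concentrations, linear interpolation of endpoints. Definition used: TGI = concentration required for complete inhibition of growth.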

Columns and labels:
Assay in all cases: NCI-60 cell line screen, 48 h
LXFL 529 NSCLC = system: LXFL 529 NSCLC
SNB-78 CNS = system: SNB-78 CNS
DMS 273 small cell lung = system: DMS 273 small cell lung
DLD-1 colon = system: DLD-1 colon
NCI-H226 lung = system: NCI-H226 lung
HOP-18 NSCLC = system: HOP-18 NSCLC
M19-MEL melanoma = system: M19-MEL melanoma
DMS 114 small cell lung = system: DMS 114 small cell lung
NCI/ADR-RES ovarian = system: NCI/ADR-RES ovarian
KM20L2 colon = system: KM20L2 colon
MCF7 breast = system: MCF7 breast

Row | Structure (SMILES) | TGI (LXFL 529 NSCLC) | TGI (SNB-78 CNS) [nM] | TGI (DMS 273 small cell lung) [nM] | TGI (DLD-1 colon) | TGI (NCI-H226 lung) [nM] | TGI (HOP-18 NSCLC) [nM] | TGI (M19-MEL melanoma) [nM] | TGI (DMS 114 small cell lung) [nM] | TGI (NCI/ADR-RES ovarian) [nM] | TGI (KM20L2 colon) [nM] | TGI (MCF7 breast) [nM]
1 | COc1ccc(C2=CN3CCC[C@H]3C=C2c2cc(O)c(OC)c(OC)c2)cc1OC | 78 nM and 376 nM | 39.1 | 21.6 | 62.7 nM and 11.9 nM | 29.4 | 50.4 | 11 | 18.9 | – | – | –
2 | O=C1C[C@H](c2ccccc2)C2(C(=O)c3ccccc3C2=O)[C@H](c2ccccc2)C1 | – | – | – | – | > 100000 | – | – | – | > 100000 | – | –
3 | c1ccc(Nc2nnc(-c3nsc4ccccc34)o2)cc1 | > 100000 nM | > 100000 | > 100000 | – | – | > 100000 | > 100000 | > 100000 | – | > 100000 | –
4 | CC1(C)[C@@H]2C[C@H]1C(Cc1cccc(C[C@H]3c4cc(-c5ccccn5)ncc4[C@H]4C[C@@H]3C4(C)C)c1)c1cc(-c3ccccn3)ncc12 (some centres undefined) | – | – | – | – | – | – | – | – | > 57600 | – | > 100000
